Test results reported in patent US9296681B2, “Cycloalkylmethylamines” (Reviva Pharmaceuticals, Inc., priority 2006, dated 2016).

Key:
[1] = active metabolites of sibutramine; cited from earlier work
[2] = target: human recombinant serotonin transporter (SERT) (Homo sapiens (Human), UniProt P31645); assay: radioligand binding assay, serotonin transporter; details: 11 test concentrations, duplicates
Description: (§1) The monoamine transporters inhibitory activities of selected compounds cycloalkylmethylamine derivatives comprising Formula (I) are reported herein. The compounds were evaluated using well established radioligand binding assays protocols (Galli, A. et al., J. Exp. Biol. 1995, 198, 2197-2212; Giros, B. et al., Trends Pharmcol. Sci. 1993, 14, 43-49; Gu, H. et al., J. Biol. Chem. 1994, 269(10), 7124-7130; Shearman, L. P. et al, Am. J. Physiol., 1998, 275 (6 Pt 1), C1621-1629; Wolf, W. A. et al., J. Biol. Chem. 1992, 267(29), 20820-20825). The human recombinant transporter proteins dopamine (DAT), norepinephrine (NET) and serotonin (SERT) were selected for the in vitro assays. The radioligand binding assays were carried out at 11 different test concentrations […] to 1 μM.
(§2) The assays were carried out in duplicates and the quantitative data are reported as Ki in the TABLE 1.

[3] = target: human recombinant dopamine transporter (DAT) (Homo sapiens (Human), UniProt Q01959); assay: radioligand binding assay, dopamine transporter; details: 11 test concentrations, duplicates
Sequence of human recombinant dopamine transporter (DAT) (Q01959 whole entry): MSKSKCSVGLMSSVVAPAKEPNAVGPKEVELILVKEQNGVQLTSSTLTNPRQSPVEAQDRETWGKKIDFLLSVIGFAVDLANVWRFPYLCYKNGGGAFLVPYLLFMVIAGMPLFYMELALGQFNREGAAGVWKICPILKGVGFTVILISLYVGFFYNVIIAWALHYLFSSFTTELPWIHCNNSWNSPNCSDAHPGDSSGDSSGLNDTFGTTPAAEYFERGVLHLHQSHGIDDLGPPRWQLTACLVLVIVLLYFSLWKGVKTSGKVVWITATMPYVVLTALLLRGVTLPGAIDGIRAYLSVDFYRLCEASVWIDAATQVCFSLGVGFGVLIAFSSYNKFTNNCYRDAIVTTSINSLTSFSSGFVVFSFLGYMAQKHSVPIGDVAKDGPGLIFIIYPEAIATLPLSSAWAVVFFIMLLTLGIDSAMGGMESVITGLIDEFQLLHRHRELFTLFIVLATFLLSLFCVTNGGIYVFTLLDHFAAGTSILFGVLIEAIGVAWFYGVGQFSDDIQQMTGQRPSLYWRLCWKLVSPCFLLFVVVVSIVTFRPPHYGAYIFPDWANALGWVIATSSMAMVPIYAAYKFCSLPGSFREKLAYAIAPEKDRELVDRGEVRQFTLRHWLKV
Description: as §1, §2

[4] = target: human recombinant norepinephrine transporter (NET) (Homo sapiens (Human), UniProt P23975); assay: radioligand binding assay, norepinephrine transporter; details: 11 test concentrations, duplicates
Sequence of human recombinant norepinephrine transporter (NET) (P23975 whole entry): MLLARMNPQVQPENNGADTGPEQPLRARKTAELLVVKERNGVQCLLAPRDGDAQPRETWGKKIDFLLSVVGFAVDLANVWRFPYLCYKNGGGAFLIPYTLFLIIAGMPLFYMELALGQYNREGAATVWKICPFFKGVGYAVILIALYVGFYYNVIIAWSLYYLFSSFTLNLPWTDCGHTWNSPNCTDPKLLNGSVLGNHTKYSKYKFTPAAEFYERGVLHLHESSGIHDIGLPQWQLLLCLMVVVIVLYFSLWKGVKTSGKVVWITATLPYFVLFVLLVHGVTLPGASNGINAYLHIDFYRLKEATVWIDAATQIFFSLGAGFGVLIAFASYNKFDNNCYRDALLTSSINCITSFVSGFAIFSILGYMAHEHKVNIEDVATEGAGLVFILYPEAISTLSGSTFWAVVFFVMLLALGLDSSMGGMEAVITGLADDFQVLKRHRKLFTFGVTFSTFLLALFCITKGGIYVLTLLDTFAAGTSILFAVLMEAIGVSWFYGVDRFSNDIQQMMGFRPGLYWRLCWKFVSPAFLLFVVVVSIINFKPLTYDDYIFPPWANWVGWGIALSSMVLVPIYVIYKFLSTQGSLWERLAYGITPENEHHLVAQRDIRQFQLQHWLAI
Description: as §1, §2

Row | Compound | elimination half-life [1] [h] | Ki [2] [nM] | Ki [3] [nM] | Ki [4] [nM]
1 | CC(C)CC(N)C1(c2ccc(Cl)cc2)CCC1 (centres unmarked) [Compound M2] | 16 | – | – | –
2 | CC(C)C[C@@H](NCCCC(N)=O)C1(c2ccc(Cl)c(Cl)c2)CCC1 (single isomer, unassigned; isomer-1) [33a-(R)-Isomer] | – | 2.3 | 0.91 | 30.3
3 | CC(C)CC(NCCCC(N)=O)C1(c2ccc(Cl)c(Cl)c2)CCC1 (racemic) [Compound 33a-Racemic] | – | 8.1 | 1.5 | 50.1
4 | CNC(CC(C)C)C1(c2ccc(Cl)cc2)CCC1 (centres unmarked) [Compound M1] | 14 | – | – | –
5 | CC(C)C[C@H](NCCCC(N)=O)C1(c2ccc(Cl)c(Cl)c2)CCC1 (single isomer, unassigned; isomer-2) [33a-(S)-Isomer] | – | 300 | 126 | 3420
6 | CCOc1ccc(C2(C(CC(C)C)NCCCC(N)=O)CCC2)cc1 (racemic) [Compound 33b-Racemic] | – | 5.49 | 472 | > 10000
